Test results as given in PMC11513923, “Discovery of ZLC491 as a Potent, Selective, and Orally Bioavailable CDK12/13 PROTAC Degrader” (Journal of Medicinal Chemistry, 2024).
pIC50: −log10 of the molar value.

How the values were obtained:
Assay in all cases: Cell proliferation assay (CCK-8)
Type in all cases: cell-based
[1] = tested on: MDA-MB-436 cells; details: Homo sapiens, MDA-MB-436, 120 h; 5 days
Description: (§1) (A) Transcription level of DDR genes in MDA-MB-231 cells determined by RT-qPCR upon the treatment with vehicle or ZLC491 at different doses for 12 h, ROR1 was used as a negative control; (B) immunoblotting of DDR proteins in MDA-MB-231 cells after the treatment of ZLC491 at different doses for 48 h; (C) cell antiproliferative activity of ZLC491 in multiple TNBC cells as well as several noncancerous cells. Cells were treated with the compound for 5 days; (D,E) antiproliferative potency of cisplatin or olaparib alone or combined with ZLC491 at different doses in MDA-MB-231 cells for 5 days. Data are plotted using the percentage of absorbance relative to DMSO controls. (F) IC50 values and combination index (CI) in drug combination assay. In this model, CI scores estimate the interaction between the two drugs. If CI < 1, the drugs have a synergistic effect and if CI > 1, the drugs have an antagonistic effect. CI = 1 means the drugs have an additive effect. ^aThe drug combination in the table refers to the starting concentration of the two combined drugs, that would both go through serial dilution when treating cells.
(§2) TNBC cell lines MDA-MB-231, MDA-MB-436 and HCC38, human embryonic kidney cell line HEK 293 and human embryonic lung cell line MRC-5 were purchased from American Type Culture Collection (ATCC). Human mammary epithelial cell line MCF 10A was obtained from Chinese Academy of Sciences National Collection of Authenticated Cell Cultures. MDA-MB-231 was maintained in Leibovitz’ s L-15 medium (Gibco) supplemented with 10% fetal bovine serum (FBS; Excell Bio) and 1% penicillin/streptomycin (P/S; Gibco) at 37 °C in a humidified chamber of 100% air atmosphere. MDA-MB-436 and HCC38 were developed in Dulbecco’s modified Eagle medium (DMEM; Gibco) and RPMI-1640 medium (Gibco), respectively, both supplemented with 10% FBS (Excell Bio) and 1% P/S (Gibco), using a 37 °C constant temperature incubator with 5% CO2. HEK 293 and MRC-5 were cultured in the same condition with Eagle’s minimum essential medium (EMEM; Wisent). MCF 10A was grown in Mammary Epithelial Cell Growth Medium BulletKit (Lonza) at 37 °C in a humidified chamber with 5% CO2.
(§3) Tested cells were plated in 96-well or 384-well plates and incubated at 37 °C with or without 5% CO2. After overnight incubation, serial dilutions of compounds were added to the plate. Cell proliferation was measured 5 days after compound treatment using Cell Counting Kit-8 (Selleck) according to the manufacturer’s instructions.

[2] = tested on: HCC38 cells; details: Homo sapiens, HCC38, 120 h; 5 days
Description: as §1, §2, §3

[3] = tested on: MCF 10A cells; details: Homo sapiens, 120 h, 5 days, noncancerous mammary epithelial cells
Description: as §1, §2, §3

[4] = tested on: MDA-MB-231 cells; details: Homo sapiens, MDA-MB-231, 120 h; 5 days
Description: as §1, §2, §3

[5] = tested on: MRC-5 cells; details: Homo sapiens, MRC5, 120 h; 5 days, noncancerous embryonic lung cells
Description: as §1, §2, §3

[6] = tested on: HEK 293 cells; details: Homo sapiens, HEK293, 120 h; 5 days, noncancerous embryonic kidney cells
Description: as §1, §2, §3

N#Cc1ccc(N[C@H]2CC[C@H](N(C(=O)NCc3ccccc3)c3ccc(N4CCN(C5CCN(c6cc7c(cc6F)C(=O)N(C6CCC(=O)NC6=O)C7=O)CC5)CC4)cc3)CC2)nc1 (stereo partly drawn) [ZLC491, 3-Benzyl-1-((1r,4r)-4-((5-cyanopyridin-2-yl)amino)cyclohexyl)-1-(4-(4-(1-(2-(2,6-dioxopiperidin-3-yl)-6-fluoro-1,3-dioxoisoindolin-5-yl)piperidin-4-yl)piperazin-1-yl)phenyl)urea]
pIC50 [1]: 6.92
pIC50 [2]: 6.72
pIC50 [3]: < 5.00
pIC50 [4]: 6.21
pIC50 [5]: < 5.00
pIC50 [6]: < 5.00
